Assay in all cases: NCI anticancer screen, dose series, 48 h
The test system of experiment [1] is A549 NSCLC.
For experiment [2], the system named is ACHN renal.
Experiment [3] has as its system DU-145 prostate.
Experiment [4] has as its system HCC-2998 colon.
Experiment [5] deals with HS 578T breast.
Experiment [6] has as its system MDA-N.
Experiment [7] relates to NCI-H226 lung.
Experiment [8] concerns SNB-75 CNS.
Experiment [9] concerns SW-620 colon.

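In this assay, cells in 96-well plates receive the compound at five concentrations for 48 hours. Endpoints are linearly interpolated between the surrounding concentrations. TGI: total growth inhibition.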

On to `COc1ccccc1NCC(=O)Nn1c(C)nc2ccc(S(=O)(=O)Nc3ccccc3OC)cc2c1=O`, for which the TGI in [1], in experiment [2], in experiment [3], in experiment [4], in [5] and in [6] was above 100 µM in each case. Also, the TGI in experiment [7], in experiment [8] and in [9] was above 100 µM in each case.

Take `COC(=O)[C@H](CCSC)NC(=O)c1ccc(CNC(=O)/C(C)=C/c2ccccc2)cc1`: the TGI was above 100 µM in [1]; above 100 µM in experiment [2]; above 100 µM in experiment [3]; 83.6 µM in [4]; above 100 µM in experiment [6]; above 100 µM in experiment [7]. The TGI is 28.4 µM in experiment [8] and above 100 µM in experiment [9].

Regarding `CN(C)CCNc1nc2c(no[n+]2[O-])c2ccccc12`, the TGI was 33.5 µM in [1]; 40.4 µM in [2]; above 100 µM in [3]; 59.2 µM in [4]; 76.6 µM in experiment [5]; 91.4 µM in experiment [6]. Also, the TGI worked out at 54.9 µM in experiment [7], 52.4 µM in [8] and 46 µM in [9].

As to `CCCC1(N)CC(OC)OC(C)C1O` (stereo not drawn), the TGI in experiment [1], in experiment [2], in [3], in experiment [4], in [5] and in experiment [6] was above 100 µM throughout. For the same compound, the TGI in experiment [7], in [8] and in experiment [9] was above 100 µM each time.

With `Cc1cc(C)c(N=Nc2c(O)c(S(=O)(=O)O)cc3cc(S(=O)(=O)O)ccc23)cc1C`, the TGI in [1], in experiment [2], in experiment [3], in [5], in experiment [6] and in experiment [7] was above 100 µM throughout. Further, the TGI in [8] and in [9] was above 100 µM in each case.

On to `Cc1ccc2c(=O)c(-c3n[nH]c(=S)s3)c[nH]c2n1`, for which the TGI in experiment [1], in experiment [2], in experiment [3], in experiment [5], in [6] and in experiment [7] was above 100 µM throughout. In experiment [9], this compound registered a TGI above 100 µM.

With `CC1(C)c2ccccc2C(O)C12CCC(=O)CC2` (stereo not drawn), the TGI in experiment [1] is 93.9 µM; in experiment [2] it was above 100 µM; in [3] it was above 100 µM; in [4], above 100 µM; in experiment [5] it was above 100 µM; in experiment [6] it was above 100 µM. The TGI in experiment [7] and in experiment [9] was above 100 µM each time.

Turning to `CC(C)c1cccc(C(C)C)c1OS(=O)(=O)NC(=O)OC(C(F)(F)F)C(F)(F)F`, the TGI in experiment [1], in [2], in [3], in experiment [4], in experiment [5] and in experiment [6] was above 100 µM in each case. For the same compound, the TGI in experiment [7] and in [9] was above 100 µM each time.

`OC(CN1CCCCC1)c1ccc(/C=C/c2ccc(Cl)cc2)cc1` (stereo not drawn): the TGI in experiment [1], in experiment [2], in experiment [3], in [4], in experiment [5] and in [6] was above 100 µM in each case. Besides, the TGI in experiment [7] and in [9] was above 100 µM each time.

As for `CC1CC[C@@]2(OC1)OC1C[C@H]3[C@@H]4CCC5CC(O)CC[C@]5(C)[C@H]4C/C(=N\N(C)C)[C@]3(C)C1[C@@H]2C` (stereo partly drawn), the TGI in experiment [1] was above 100 µM; in experiment [2] it was above 100 µM; in experiment [3], 60.1 µM; in experiment [4], 45.6 µM; in experiment [5] it was 97.7 µM; in experiment [6], 41.4 µM. The TGI in [7] and in [9] was above 100 µM each time.

Consider `CC[C@H](C)C1=C(OC(C)=O)[N@+]2([O-])Oc3ccc(-c4c(OC(C)=O)c(OC(C)=O)c(-c5ccc(OC(C)=O)cc5)c(OC(C)=O)c4OC(C)=O)cc3O[C@]2([C@@H](C)CC)C(=O)N1OC(C)=O`, for which the TGI is 41.6 µM in experiment [1]; above 50 µM in [2]; above 50 µM in experiment [3]; 0.031 µM in experiment [4]; above 50 µM in experiment [6]; above 50 µM in experiment [7]. In addition, the TGI in [8] is 39.5 µM; in [9], above 50 µM.

Turning to `OC(c1ccccc1)(c1cccnc1)C(O)(c1ccccc1)c1cccnc1` (stereo not drawn), the TGI in experiment [1], in [2], in experiment [3], in experiment [5], in [6] and in experiment [7] was above 100 µM each time. The TGI in [8] and in experiment [9] was above 100 µM throughout.

`NC(N)=NCC(N)C(=O)O` (stereo not drawn): the TGI in experiment [1], in [2], in [3], in [5], in [6] and in experiment [7] was above 100 µM each time. The TGI in experiment [8] and in experiment [9] was above 100 µM in each case.

On to `CC(=O)O[C@H]1CC[C@H]2[C@@H]3CCC(C(C)=O)[C@H](C(=O)O)[C@H]3CC[C@]12C` (stereo partly drawn), for which the TGI in experiment [1], in experiment [4], in experiment [5] and in experiment [9] was above 100 µM each time.

`Cc1cccc(NC2=NCCO2)c1Cl`: the TGI in experiment [1], in [2], in [3], in experiment [4], in [5] and in experiment [7] was above 100 µM each time. Also, the TGI in experiment [8] and in experiment [9] was above 100 µM each time.

Turning to `CCCCNC(=S)Nc1nc(C(=O)NNC(=O)c2ccccc2)cs1`, the TGI was determined as 55.2 µM in experiment [1]; 37.3 µM in [2]; 53.4 µM in experiment [3]; 27.5 µM in [4]; 39.4 µM in experiment [6]; 67.8 µM in experiment [7]. Besides, the TGI in experiment [8] was 72.7 µM; in experiment [9] it was 30.2 µM.

For `O=C1N[C@@H](COc2ccc(C=Nc3ccc(CCc4ccc(N=Cc5ccc(OC[C@@H]6COC(=O)N6)cc5)cc4)cc3)cc2)CO1`, the TGI in [1], in experiment [2], in [3], in experiment [5], in experiment [6] and in experiment [7] was above 100 µM in each case. For the same compound, the TGI in experiment [9] was above 100 µM.

The record behind these values is PubChem BioAssay (NCI).
